Test: Pharmacokinetics of 9-nitro-camptothecin (9NC) in IVAP beagle dog model
Format: in vivo, beagle dogs
Conditions: for Mean AUC0-inf of 9-AC, Portal Vein AUC / Mean AUC0-inf of 9-AC, Systemic AUC: in ng·h/mL
Experimental: Blood samples were taken systemic and from the portal vein through a sampling/delivery vascular port previously implanted, then plasma was separated by centrifugation and kept frozen at −80° C. until analysis.
The samples were analyzed in a Perkin Elmer liquid chromatography-tandem mass spectrometer system with a PE LC-200 Micro pump, a PE200 Autosampler and a PE Sciex API 365 mass spectrometry unit.
Adult male beagle dogs (between the ages of 1 and 5 years and weighed between 9 and 16 kg) were obtained from Summit Ridge Farms, Susquehanna, Pa. The IVAP dogs were prepared by using a protocol similar to the one used for pentostatin experiments described above.
On the morning of the test, each animal is weighed and placed in the sling. An IV catheter is installed in the brachial vein for systemic blood sampling with a multiuse vacutainer needle adapter. This is flushed with heparinized saline (50 units/ml) to maintain potency between sampling. When necessary, a 20 g or 22 g right-angled Huber infusion set would be placed in the PV port and attached to a three-way stopcock for PV blood sampling.
The preparation of the dose depends on the route of study. In case of IV and PV administration, the drug was dissolved in dimethylacetamide (DMA) at 5 mg/ml and 0.5 ml of the DMA concentrate filtered through a […] filter into 4.5 ml of diluent (51% PEG-400 49% 0.001 M H3PO4) prior to administration to the brachial or portal vein. In the case of all other infusions, as well as oral administration, the drug was dissolved in vegetable oil to a concentration of 1 mg/ml and drawn up into dosing syringes. Animals were dosed IV at 0.1 and 0.2 mg/kg and 0.2 mg/kg for all the other routes of administration tested.
In intravascular studies, the dose is administered via a second catheter and the entire volume is delivered within 45 seconds.
In portal vein studies, the dose is also administered via an additional catheter over a 30 min time period.
In the case of oral dosages, the dose is delivered to the back of the mouth with an appropriate size syringe and is followed with 5 ml of tap water to assist swallowing and clearance of the dose from the mouth. Capsules were administered similarly by placing them at the back of the mouth and giving around 5 ml of water to facilitate swallowing.
For all other tests, the dosage is infused into the appropriate intestinal port and flushed with 2-3 ml of sterile saline. The dead space volume of the ports and tubing vary slightly between individuals, but are generally less than 0.5 ml total. […]
Systemic blood samples allow the calculation of AUC0-inf after oral capsule administration only and portal vein AUC for all the routes of administration.

[1] = 9-NC 0.2 mg/kg COLON port, 0.17 hr
[2] = 9-NC 0.2 mg/kg ileum port, 0.17 hr
[3] = 9-NC 0.2 mg/kg jejunal port, 0.17 hr
[4] = portal vein samples, 9-NC via COLON port
[5] = portal vein samples, 9-NC via ILEUM port
[6] = portal vein samples, 9-NC via JEJUNUM port
[7] = systemic samples, 9-NC via COLON port
[8] = systemic samples, 9-NC via ILEUM port
[9] = systemic samples, 9-NC via JEJUNUM port

CC[C@@]1(O)C(=O)OCc2c1cc1n(c2=O)Cc2cc3c(N)cccc3nc2-1 [9-AC, 9-amino-20(S)-camptothecin]
Mean plasma concentration, Portal Vein [1]: 0.50 ± 0.03 ng/mL | Mean plasma concentration, Systemic [1]: 0.42 ng/mL | Mean plasma concentration, Portal Vein [2]: 0.12 ng/mL | Mean plasma concentration, Systemic [2]: BQL | Mean plasma concentration, Portal Vein [3]: 0.10 ng/mL | Mean plasma concentration, Systemic [3]: BQL | Mean AUC0-inf of 9-AC, Portal Vein AUC (9-NC Intracolon): 20.81 ± 9.57 | Mean AUC0-inf of 9-AC, Systemic AUC (9-NC Intracolon): 36.91 ± 22.62 | Mean AUC0-inf of 9-AC, Systemic AUC (9-NC Intraileum): 21.23 ± 14.94 | Mean AUC0-inf of 9-AC, Portal Vein AUC (9-NC Intrajejunal): 50.26 ± 6.65 | Mean AUC0-inf of 9-AC, Systemic AUC (9-NC Intrajejunal): 24.41 ± 7.77 | Mean AUC0-inf of 9-AC, Portal Vein AUC (9-NC Intravenous (0.1 mg/kg)): 10.76 ± 3.02 | Mean AUC0-inf of 9-AC, Systemic AUC (9-NC Intravenous (0.1 mg/kg)): 12.14 ± 5.68 | Mean AUC0-inf of 9-AC, Portal Vein AUC (9-NC Intravenous (0.2 mg/kg)): 25.02 ± 9.87 | Mean AUC0-inf of 9-AC, Systemic AUC (9-NC Intravenous (0.2 mg/kg)): 21.04 ± 2.36 | Mean AUC0-inf of 9-AC, Portal Vein AUC (9-NC Oral - capsule): 66.15 ± 34.53 | Mean AUC0-inf of 9-AC, Systemic AUC (9-NC Oral - capsule): 44.74 ± 24.72 | Mean AUC0-inf of 9-AC, Portal Vein AUC (9-NC Oral - suspension): 34.43 ± 9.52 | Mean AUC0-inf of 9-AC, Systemic AUC (9-NC Oral - suspension): 20.31 ± 6.97 | Mean AUC0-inf of 9-AC, Systemic AUC (9-NC Portal vein): 4.73 ± 0.73 | Mean plasma concentration, Portal Vein (COLON port, 0.5 hr): 0.77 ± 0.42 ng/mL | Mean plasma concentration, Systemic (COLON port, 0.5 hr): 0.30 ± 0.29 ng/mL | Mean plasma concentration, Portal Vein (COLON port, 1 hr): 1.20 ± 0.60 ng/mL | Mean plasma concentration, Systemic (COLON port, 1 hr): 0.45 ± 0.20 ng/mL | Mean plasma concentration, Portal Vein (COLON port, 1.5 hr): 1.19 ± 0.97 ng/mL | Mean plasma concentration, Systemic (COLON port, 1.5 hr): 0.76 ± 0.12 ng/mL | Mean plasma concentration, Portal Vein (COLON port, 2 hr): 1.50 ± 0.66 ng/mL | Mean plasma concentration, Systemic (COLON port, 2 hr): 0.68 ± 0.11 ng/mL | Mean plasma concentration, Portal Vein (COLON port, 3 hr): 0.88 ± 0.19 ng/mL | Mean plasma concentration, Systemic (COLON port, 3 hr): 0.83 ± 0.36 ng/mL | Mean plasma concentration, Portal Vein (COLON port, 4 hr): 2.06 ± 1.69 ng/mL | Mean plasma concentration, Systemic (COLON port, 4 hr): 0.90 ± 0.45 ng/mL | Mean plasma concentration, Portal Vein (COLON port, 6 hr): 1.54 ± 1.06 ng/mL | Mean plasma concentration, Systemic (COLON port, 6 hr): 0.74 ± 0.06 ng/mL | Mean plasma concentration, Portal Vein (COLON port, 8 hr): 0.70 ng/mL | Mean plasma concentration, Systemic (COLON port, 8 hr): 1.14 ± 0.38 ng/mL | Mean plasma concentration, Systemic (COLON port, 10 hr): 0.77 ng/mL | Mean plasma concentration, Portal Vein (COLON port, 12 hr): 0.76 ng/mL | Mean plasma concentration, Systemic (COLON port, 12 hr): 1.11 ± 0.78 ng/mL | Mean plasma concentration, Portal Vein (COLON port, 24 hr): 0.77 ng/mL | Mean plasma concentration, Systemic (COLON port, 24 hr): 0.83 ± 0.00 ng/mL | half-life of metabolite (after IV 0.1 mg/kg 9-NC): 3.51 ± 1.87 h | half-life of metabolite (after IV 0.2 mg/kg 9-NC): 6.94 ± 2.87 h | time at which the metabolite reached the maximum concentration (after IV dosing of 9-NC): around 1 hr | Mean plasma concentration, Portal Vein (ileum port, 0.5 hr): 0.26 ng/mL | Mean plasma concentration, Systemic (ileum port, 0.5 hr): 0.11 ng/mL | Mean plasma concentration, Portal Vein (ileum port, 1 hr): 0.28 ± 0.06 ng/mL | Mean plasma concentration, Systemic (ileum port, 1 hr): 0.20 ng/mL | Mean plasma concentration, Portal Vein (ileum port, 1.5 hr): 0.75 ± 0.52 ng/mL | Mean plasma concentration, Systemic (ileum port, 1.5 hr): 0.23 ± 0.10 ng/mL | Mean plasma concentration, Portal Vein (ileum port, 2 hr): 0.99 ± 0.60 ng/mL | Mean plasma concentration, Systemic (ileum port, 2 hr): 0.52 ± 0.42 ng/mL | Mean plasma concentration, Portal Vein (ileum port, 3 hr): 1.80 ± 1.97 ng/mL | Mean plasma concentration, Systemic (ileum port, 3 hr): 1.40 ng/mL | Mean plasma concentration, Portal Vein (ileum port, 4 hr): 3.06 ± 3.74 ng/mL | Mean plasma concentration, Systemic (ileum port, 4 hr): 0.86 ± 0.67 ng/mL | Mean plasma concentration, Portal Vein (ileum port, 6 hr): 4.09 ± 4.44 ng/mL | Mean plasma concentration, Systemic (ileum port, 6 hr): 1.17 ± 0.75 ng/mL | Mean plasma concentration, Systemic (ileum port, 8 hr): 2.04 ± 0.20 ng/mL | Mean plasma concentration, Systemic (ileum port, 12 hr): 0.85 ± 0.95 ng/mL | Mean plasma concentration, Systemic (ileum port, 24 hr): 0.47 ng/mL | Mean plasma concentration, Portal Vein (jejunal port, 0.5 hr): 0.12 ng/mL | Mean plasma concentration, Systemic (jejunal port, 0.5 hr): BQL | Mean plasma concentration, Portal Vein (jejunal port, 1 hr): 0.16 ± 0.10 ng/mL | Mean plasma concentration, Systemic (jejunal port, 1 hr): 0.38 ng/mL | Mean plasma concentration, Portal Vein (jejunal port, 2 hr): 0.39 ± 0.04 ng/mL | Mean plasma concentration, Systemic (jejunal port, 2 hr): 0.32 ± 0.11 ng/mL | Mean plasma concentration, Portal Vein (jejunal port, 3 hr): 0.97 ± 0.76 ng/mL | Mean plasma concentration, Systemic (jejunal port, 3 hr): 0.47 ± 0.38 ng/mL | Mean plasma concentration, Portal Vein (jejunal port, 4 hr): 2.38 ± 2.20 ng/mL | Mean plasma concentration, Systemic (jejunal port, 4 hr): 0.89 ± 0.67 ng/mL | Mean plasma concentration, Portal Vein (jejunal port, 6 hr): 1.65 ± 1.13 ng/mL | Mean plasma concentration, Systemic (jejunal port, 6 hr): 1.59 ± 1.71 ng/mL | Mean plasma concentration, Portal Vein (jejunal port, 8 hr): 2.70 ± 0.59 ng/mL | Mean plasma concentration, Systemic (jejunal port, 8 hr): 1.71 ± 1.54 ng/mL | Mean plasma concentration, Systemic (jejunal port, 10 hr): 1.81 ± 1.09 ng/mL | Mean plasma concentration, Portal Vein (jejunal port, 12 hr): 2.62 ± 0.29 ng/mL | Mean plasma concentration, Systemic (jejunal port, 12 hr): 1.03 ± 0.05 ng/mL | Mean plasma concentration, Portal Vein (jejunal port, 24 hr): 0.66 ng/mL | Mean plasma concentration, Systemic (jejunal port, 24 hr): 0.45 ± 0.29 ng/mL | AUC0-INF (portal vein samples, 0.2 mg/kg 9-NC via COLON port): 20.81 ± 9.57 ng·h/mL | AUC0-INF (portal vein samples, 0.2 mg/kg 9-NC via JEJUNUM port): 50.26 ± 6.65 ng·h/mL | AUCLast [4]: 12.69 ± 5.10 ng·h/mL | CMAX [4]: 2.28 ± 1.59 ng/mL | MRT [4]: 7.54 ± 0.61 h | T1/2 [4]: 3.98 ± 0.25 h | TMAX [4]: 4.00 ± 2.00 h | AUCLast [5]: 11.83 ± 12.85 ng·h/mL | CMAX [5]: 4.10 ± 2.28 ng/mL | TMAX [5]: 6.00 ± 0.00 h | AUCLast [6]: 28.70 ± 12.16 ng·h/mL | CMAX [6]: 3.46 ± 1.22 ng/mL | MRT [6]: 13.97 ± 2.62 h | T1/2 [6]: 6.54 ± 1.30 h | TMAX [6]: 9.33 ± 4.62 h | AUC0-INF (systemic samples, 0.2 mg/kg 9-NC via COLON port): 36.91 ± 22.62 ng·h/mL | AUC0-INF (systemic samples, 0.2 mg/kg 9-NC via ILEUM port): 21.23 ± 14.94 ng·h/mL | AUC0-INF (systemic samples, 0.2 mg/kg 9-NC via JEJUNUM port): 24.41 ± 7.77 ng·h/mL | AUCLast [7]: 19.34 ± 11.92 ng·h/mL | CMAX [7]: 1.29 ± 0.63 ng/mL | MRT [7]: 57.62 ± 42.79 h | T1/2 [7]: 15.16 ± 14.34 h | TMAX [7]: 9.33 ± 2.31 h | AUCLast [8]: 18.69 ± 11.73 ng·h/mL | CMAX [8]: 2.04 ± 0.20 ng/mL | MRT [8]: 10.64 ± 5.14 h | T1/2 [8]: 4.09 ± 4.24 h | TMAX [8]: 8.00 ± 0.00 h | AUCLast [9]: 18.86 ± 5.73 ng·h/mL | CMAX [9]: 1.99 ± 1.39 ng/mL | MRT [9]: 15.64 ± 8.69 h | T1/2 [9]: 7.20 ± 5.98 h | TMAX [9]: 8.67 ± 2.31 h

From patent publication US20040162263A1, “Pharmaceutical formulations targeting specific regions of the gastrointesinal tract” (priority 2002, published 2004)
